Literature values, collected in patent US20100099894A1, “Method for the Synthesis of Cyclic Acetals by the Reactive Extraction of a Polyol in a Concentrated Solution” (priority 2006, published 2010).

Conditions: aqueous solution, at room temperature; data from Yaw's Handbook

solubility in water [mg/kg]	SMILES
11700	CCCCC=O [pentanal]
2640	CC(C)CC(=O)CC(C)C [diisobutyl ketone]
6842	CC(=O)c1ccccc1 [acetophenone]
5700	CC(C)C(=O)C(C)C [diisopropyl ketone]
370	CCCCCCCC=O [n-octanal]
1516	CCCCCCC=O [n-heptanal]

SMILES	solubility in water [mg/kg]
O=Cc1ccccc1 [benzaldehyde]	6570

Same assay, conditions: background description of Solketal

miscibility in water	SMILES
miscible in water	CC1(C)OCC(CO)O1 (centres unmarked) [Solketal]
